The values below come from paper PMC11264232, “Are the metal identity and stoichiometry of metal complexes important for colchicine site binding and inhibition of tubulin polymerization?” (Dalton Transactions (Cambridge, England : 2003), 2024).

Values joined by “and” are separate entries in the source; they are usually repeats but may differ in a detail not shown here. Equal entries are not always repeated. Where two headings read alike, the source gives them in different places. Marks after values point to notes of the source that are not given here. Bounds are passed on as bounds.

One series deals with purified tubulin. As to the kind of experiment: Inhibition of tubulin polymerization. Particulars: read-out: Inhibition of tubulin polymerization IC50 ± SD. The format is biochemical. The text has this:
As a reference for comparison, combretastatin A-4 (CA-4) and Cu(HL^1)Cl2 were used.
(§1) The methods used for determination of the IC50 values for tubulin assembly and inhibition of [^3H]colchicine binding were as described previously.[77]

The test system of series [1] is tubulin (colchicine site). As to the kind of experiment: Inhibition of [3H]colchicine binding to tubulin. Particulars: tubulin 0.5 μM, [3H]colchicine 5 μM.
Source text: as §1

Series [2] can be described thus: Cyclic voltammetry in DMSO/nBu4NPF6. Particulars: scan rate 100 mV s^−1. The format is physicochemical. The method, then: Cyclic voltammetric experiments with 0.5 mM solutions of 1–3 in 0.1 M nBu4NPF6 (puriss quality from Fluka (Schwerte, Germany), dried under reduced pressure at 70 °C for 24 h before use) supporting electrolyte in DMSO (SeccoSolv max. 0.025% H2O, Merck) were performed under argon atmosphere using a three-electrode setup with a platinum disk or a glassy carbon disk working electrode (from Ionode, Australia), platinum wire as a counter electrode, and silver wire as a pseudo reference electrode. All potentials in voltammetric studies were quoted vs. ferricenium/ferrocene (Fc^+/Fc) redox couple. A Heka PG310USB (Lambrecht, Germany) potentiostat with a PotMaster 2.73 software package served for the potential control in voltammetric studies. In situ ultraviolet-visible-near-infrared (UV–Vis–NIR) spectroscopic and spectroelectrochemical measurements were performed on a spectrometer Avantes (Model AvaSpec-2048_14-USB2) in 1 cm quartz cuvette or the spectroelectrochemical cell kit ([…]3) with the Pt-microstructured honeycomb working electrode, purchased from Pine Research Instrumentation (Lyon, France). The cell was positioned in the CUV-UV Cuvette Holder (Ocean Optics, Ostfildern, Germany) connected to the diode-array UV–Vis–NIR spectrometer by optical fibres. UV–Vis–NIR spectra were processed using the AvaSoft 7.7 software package. Halogen and deuterium lamps were used as light sources (Avantes, Model AvaLight-DH-S-BAL, Apeldoorn, The Netherlands). EPR spectra were measured with a X-band cw-EPR spectrometers EMX and EMX plus (Bruker) at room temperature or 100 K. Spectroelectrochemical experiments were performed in a flat cell equipped with a Pt mesh working electrode using nBu4NPF6/DMSO electrolyte. Measurements in frozen solvent glass were done in MeCN/DMF 1 : 1 v/v. Complexes 4 and 5 were dissolved under ambient conditions, and complex 3 was reduced with a stoichiometric equivalent of cobaltocene in a N2 glovebox (N2 < 2 ppm, H2O < 1 ppm). The MeCN/DMF solutions were flash frozen in liquid N2 prior to transfer to the N2 flow cryostat precooled at 100 K inside the cavity of the EPR resonator. EPR spectra were analyzed with the Easyspin toolbox,[75] running on Matlab.

Series [3] in a line: pKa by pH-potentiometric titration. Format: physicochemical. Particulars: 30% (v/v) DMSO/H2O, 25.0 °C, I = 0.1 M (KCl), anoxic. The protocol:
Therefore, the proton dissociation constants (pKa) of the proligands HL^1–HL^3 were determined under anoxic conditions by pH-potentiometric titrations (Fig. S14 in the ESI ^†). As this method requires relatively high compound concentrations (>1 mM), the measurements were performed in 30% (v/v) DMSO to achieve the required solubility. Three pKa values were determined for the proligands HL^1 and HL^2, whereas only two constants, as expected, were obtained for phenyl derivative HL^3 (Table 3). The constants obtained were assigned to the deprotonation NmorpholiniumH^+ (NmorphH^+), NhydrazineH (NhydrH) and OH moieties for HL^1 and HL^2, and to the NmorphH^+ and NhydrH for HL^3, respectively. It should be noted that we could not determine pKa values for the pyridinium group as its deprotonation in all three instances took place at fairly low pH values (pH < 2) due to the electron withdrawing effect of the protonated morpholinium moiety. The determined pKa values indicate that these compounds are in their neutral HL form at pH 7.4 and only a minor fraction (1–3%) is protonated ((HL)H^+) at the morpholinium nitrogen (Table 3).

Series [4] has as its system A549 human lung adenocarcinoma cells. As to the kind of experiment: MTT viability assay, 24 h. Conditions: Homo sapiens, A549, 24 h, read-out: IC50 values A549. (Tetrazolium assays rely on reduction of a dye to a coloured formazan, in cell work by metabolically active cells.)
Method: (§2) We wanted to compare the cytotoxicity of proligands HL^1–HL^3 and of their Co(III) and Fe(III) complexes 1, 2 and 4, 5 on cell lines originating from the same tissue, so human lung carcinoma A549 cells and lung fibroblast MRC-5 cells were subjected to 24 h treatments.
(§3) The biological effects of selected metal complexes (1, 2, 4 and 5) and of their proligands (HL^1, HL^2 and HL^3) were tested more extensively on A549 human lung adenocarcinoma cells and on MRC-5 human lung fibroblast cells. Both cell lines were obtained from ATCC and maintained in DMEM cell culture media containing 1.0 g L^−1 glucose (Biosera, Nuaille, France) complemented with 10% fetal bovine serum (FBS), 2 mM L-glutamine, 0.01% streptomycin and 0.005% penicillin and were cultured under standard conditions in a 37 °C incubator at 5% CO2 and 95% humidity. The viability of A549 and of MRC-5 fibroblast cells upon exposure to the selected metal–ligand complexes and ligands were evaluated by the MTT assay. For this, 10 000 cells per well were seeded into 96-well plates and left to grow. On the next day the cells were exposed to 0, 5, 10, 20, 40 or 80 μM of each compound or to an equivalent volume of DMSO for 24 h. After the treatments, cells were washed with PBS and then were incubated with 0.5 mg mL^−1 MTT reagent (Sigma-Aldrich, St Louis, Missouri, USA) for 1 h at 37 °C. Finally, 100 μL of DMSO (Molar Chemicals, Halásztelek, Hungary) was added to each well, and the absorbance of samples was measured at 570 nm using a Synergy HTX plate reader (BioTek, Winooski, Vermont, USA). The viability measurements were repeated three times using 3 independent biological replicates.
The test system of series [5] is MRC-5 human lung fibroblast cells. As to the kind of experiment: MTT viability assay, 24 h. Conditions: Homo sapiens, MRC5, 24 h, read-out: IC50 values MRC-5.
Method: as §2, §3
Series [6] in a line: n-octanol/water partitioning (shake-flask), log D. Conditions: n-octanol/buffered aqueous solution, pH 6.

The term IC50 denotes the concentration that gives 50% inhibition. Consider `COc1ccc(/C=C\c2cc(OC)c(OC)c(OC)c2)cc1O` [C-A4, combretastatin A-4, reference compound], for which the IC50 in the series on purified tubulin was […]. Moreover, in series [1] (5 μM inhibitor), the “Inhibition of colchicine binding, % inhibition ± SD” value (from here on “Inhibition … % inhibition ± SD”) came to 97 ± 0.5%.
Regarding `Cc1cc(NC([S-])=NN=Cc2cccc(CN3CCOCC3)n2)cc(C)c1O.[Cl-].[Ni+2]` [Complex 6, [Ni^II(L^1)]Cl], in series [2], the “1st oxidation potential (peak potential Ep)” value is 0.12 volts vs. Fc^+/Fc and 0.12^i* volts vs. Fc^+/Fc; the “1st reduction potential (E1/2 or Ep)” value is −1.29 volts vs. Fc^+/Fc and −1.29^q volts vs. Fc^+/Fc; the “2nd reduction potential (E1/2 or Ep)” value is −1.87 volts vs. Fc^+/Fc and −1.87^q volts vs. Fc^+/Fc. Further, the IC50 in the series on purified tubulin is > 20 µM.
Consider `Cc1cc(NC([S-])=NN=Cc2cccc(C[NH+]3CCOCC3)n2)cc(C)c1O.[Cl-].[Cl-].[Pd+2]` [Complex 8, [Pd^II(HL^1)Cl]Cl], for which, in series [2], the “1st oxidation potential (peak potential Ep)” value is 0.28 volts vs. Fc^+/Fc and 0.28^i* volts vs. Fc^+/Fc; the “1st reduction potential (E1/2 or Ep)” value is reported as −0.91^q volts vs. Fc^+/Fc; the “2nd reduction potential (E1/2 or Ep)” value is reported as −1.28^q volts vs. Fc^+/Fc. The IC50 in the series with purified tubulin came to 6.5 ± 1 µM. The “Inhibition … % inhibition ± SD” value in series [1] (5 μM inhibitor) came to 13 ± 5%. The “Inhibition … % inhibition ± SD” value in series [1] (25 μM inhibitor) turned out to be 97 ± 1%.
In general, logD refers to the decadic logarithm of the distribution of all forms, ionised or not, between an organic phase and buffer at a given pH. Lower therefore signals a more hydrophilic compound. For `Cc1cc(NC(=S)N/N=C/c2cccc(CN3CCOCC3)n2)cc(C)c1O` [HL^1, 6-morpholinomethyl-2-formylpyridine 4N-(4-hydroxy-3,5-dimethylphenyl)-3-thiosemicarbazone], the pKa in series [3] (read-out: pKa (NhydrH)) was found to be 10.44 ± 0.03; in series [3] (read-out: pKa (NmorphH^+)), 5.54 ± 0.03; in series [3] (read-out: pKa (OH)), 12.12 ± 0.02. The figures for the IC50 in series [4] and in series [5] were 72.8 ± 1.22 µM and > 80 µM, respectively. The compound also displayed a logD in series [6] of 1.23.
Turning to `C/C(=N\NC(=S)Nc1cc(C)c(O)c(C)c1)c1cccc(CN2CCOCC2)n1` [HL^2, 6-morpholinomethyl-2-acetylpyridine 4N-(4-hydroxy-3,5-dimethylphenyl)-3-thiosemicarbazone], the values for the pKa in series [3] (read-out: pKa (NhydrH)), in series [3] (read-out: pKa (NmorphH^+)) and in series [3] (read-out: pKa (OH)) were 10.41 ± 0.03, 5.85 ± 0.04 and 12.23 ± 0.02, respectively. Moreover, the IC50 in series [4] and in series [5] was > 80 µM in each case. For the same compound, in series [6], the logD was 1.5.
As for `S=C(N/N=C/c1cccc(CN2CCOCC2)n1)Nc1ccccc1` [HL^3, 6-morpholinomethyl-2-formylpyridine 4N-phenyl-3-thiosemicarbazone], the pKa is 10.44 ± 0.03 in series [3] (read-out: pKa (NhydrH)) and 5.55 ± 0.02 in series [3] (read-out: pKa (NmorphH^+)). Moreover, the IC50 in series [4] and in series [5] was > 80 µM in each case. The logD in series [6] is 2.06.
